Experimental data taken from patent US20260285850A1, “SUBSTITUTED OXAZOLIDINONES AND IMIDAZOLINONES AS HERBICIDES” (FMC CORPORATION, priority 2023, published 2026).

Assays:
Format in all cases: in vivo
[1] = test system: blackgrass (Alopecurus myosuroides); test: Test A postemergence application, visual injury rating 0-100
Method in brief: (§1)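 Greenhouse test: loam/sand pots received a surfactant-containing formulation, as a preemergence directed soil spray or a postemergence spray on young plants. Injury was judged visually at day 10 relative to untreated controls.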

[2] = test system: palmer (palmer amaranth, palmer pigweed, Amaranthus palmeri); test: as above
Method in brief: as §1

[3] = test system: horseweed (Erigeron canadensis); test: as above
Method in brief: as §1

[4] = test system: wheat (Triticum aestivum); test: as above
Method in brief: as §1

kochia (Bassia scoparia) [5] = test: as above
Method in brief: as §1

[6] = test system: galium (catchweed bedstraw, Galium aparine); test: as above; conditions: Postemergence, 16 g ai/ha, greenhouse 10 days; 0 no effect, 100 complete control
Method in brief: as §1

[7] = test system: green foxtail (Setaria viridis); test: as above
Method in brief: as §1

[8] = test system: ryegrass, Italian (italian ryegrass, Lolium multiflorum); test: as above
Method in brief: as §1

[9] = test system: barnyardgrass (Echinochloa crus-galli); test: as above
Method in brief: as §1

soybean (Glycine max) [10] = test: as above
Method in brief: as §1

[11] = test system: ragweed (common ragweed, Ambrosia artemisiifolia); test: as above
Method in brief: as §1

corn (Zea mays) [12] = test: as above
Method in brief: as §1

[13] = test system: oat, wild (wild oat, Avena fatua); test: as above
Method in brief: as §1

[14] = test system: blackgrass (Alopecurus myosuroides); test: Test A preemergence soil spray, visual injury rating 0-100; conditions: 10 days
Method in brief: as §1

[15] = test system: palmer (palmer amaranth, palmer pigweed, Amaranthus palmeri); test: as above; conditions: 10 days
Method in brief: as §1

[16] = test system: wheat (Triticum aestivum); test: as above; conditions: 10 days
Method in brief: as §1

kochia (Bassia scoparia) [17] = test: as above; conditions: 10 days
Method in brief: as §1

[18] = test system: green foxtail (Setaria viridis); test: as above; conditions: 10 days
Method in brief: as §1

[19] = test system: ryegrass, Italian (italian ryegrass, Lolium multiflorum); test: as above; conditions: 10 days
Method in brief: as §1

[20] = test system: barnyardgrass (Echinochloa crus-galli); test: as above; conditions: 10 days
Method in brief: as §1

soybean (Glycine max) [21] = test: as above; conditions: 10 days
Method in brief: as §1

[22] = test system: ragweed (common ragweed, Ambrosia artemisiifolia); test: as above; conditions: 10 days
Method in brief: as §1

corn (Zea mays) [23] = test: as above; conditions: 10 days
Method in brief: as §1

[24] = test system: oat, wild (wild oat, Avena fatua); test: as above; conditions: 10 days
Method in brief: as §1

rice (Oryza sativa) = test: Test B flooded paddy test, visual plant response rating 0-100; conditions: 250 g ai/ha, Flood, applied to paddy water, evaluated after 13 days
Method in brief: (§2)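 Plants were grown to the 2-leaf stage, then pots were flooded to 3 cm above the soil and test compounds were applied directly into the paddy water. Water depth was held there throughout; after 13 days in a greenhouse, injury was scored visually against untreated controls.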

[25] = test system: sedge, umbrella (small-flower umbrella sedge, Cyperus difformis); test: as above; conditions: 250 g ai/ha, Flood, applied to paddy water, evaluated after 13 days
Method in brief: as §2

[26] = test system: barnyardgrass (Echinochloa crusgalli); test: as above; conditions: 250 g ai/ha, Flood, applied to paddy water, evaluated after 13 days
Method in brief: as §2

[27] = test system: ducksalad (Heteranthera limosa); test: as above; conditions: 250 g ai/ha, Flood, applied to paddy water, evaluated after 13 days
Method in brief: as §2

[28] = 62 g ai/ha, postemergence, 10 days, 0 = no effect, 100 = complete control
[29] = Postemergence, 16 g ai/ha, greenhouse 10 days, 0 no effect, 100 complete control
[30] = 62 g ai/ha, 0 = no effect, 100 = complete control

`CSCCOC(=O)C1=CCC(NC(=O)C2(C)CN(c3cc(Cl)cc(Cl)c3)C(=O)O2)C1` (stereo not drawn) [Compound 146] was tested, and the “Blackgrass plant response rating (0-100)” value [1, 28] was 0, the “Blackgrass plant response rating (0 to 100 scale)” value [1, 29] was 0 and the “Pigweed, Palmer plant response rating (0-100)” value [2, 28] was 0. The “Pigweed, Palmer plant response rating (0 to 100 scale)” value [2, 29] was 0, the “Horseweed plant response rating (0-100)” value [3, 28] was 10 and the “Horseweed plant response rating (0 to 100 scale)” value [3, 29] was 0. For the same compound, the “Wheat plant response rating (0-100)” value [4, 28] was 0, the “Wheat plant response rating (0 to 100 scale)” value [4, 29] was 0 and the “Kochia plant response rating (0-100)” value (kochia (Bassia scoparia) [5]; [28]) was 0. The “Kochia plant response rating (0 to 100 scale)” value (kochia (Bassia scoparia) [5]; [29]) was 0, the “Galium plant response rating (0 to 100 scale)” value [6] was 0 and the “Foxtail, Green plant response rating (0-100)” value [7, 28] was 0. For the same compound, the “Foxtail, Green plant response rating (0 to 100 scale)” value [7, 29] was 0, the “Ryegrass, Italian plant response rating (0-100)” value [8, 28] was 0 and the “Ryegrass, Italian plant response rating (0 to 100 scale)” value [8, 29] was 0. The “Barnyardgrass plant response rating (0-100)” value [9, 28] was 20, the “Barnyardgrass plant response rating (0 to 100 scale)” value [9, 29] was 0 and the “Soybean plant response rating (0-100)” value (soybean (Glycine max) [10]; [28]) was 0. The “Soybean plant response rating (0 to 100 scale)” value (soybean (Glycine max) [10]; [29]) was 0, the “Ragweed plant response rating (0-100)” value [11, 28] was 0 and the “Ragweed plant response rating (0 to 100 scale)” value [11, 29] was 0. For the same compound, the “Corn plant response rating (0-100)” value (corn (Zea mays) [12]; [28]) was 0, the “Corn plant response rating (0 to 100 scale)” value (corn (Zea mays) [12]; [29]) was 0 and the “Oat, Wild plant response rating (0-100)” value [13, 28] was 0. The “Oat, Wild plant response rating (0 to 100 scale)” value [13, 29] was 0, the “Blackgrass plant response rating” value ([14]; 16 g ai/ha, 0 to 100 scale) was 0 and the “Blackgrass plant response rating (0-100)” value [14, 30] was 0. For the same compound, the “Pigweed, Palmer plant response rating” value ([15]; 16 g ai/ha, 0 to 100 scale) was 0, the “Pigweed, Palmer plant response rating (0-100)” value [15, 30] was 0 and the “Wheat plant response rating” value ([16]; 16 g ai/ha, 0 to 100 scale) was 0. For the same compound, the “Wheat plant response rating (0-100)” value [16, 30] was 0, the “Kochia plant response rating” value (kochia (Bassia scoparia) [17]; 16 g ai/ha, 0 to 100 scale) was 0 and the “Kochia plant response rating (0-100)” value (kochia (Bassia scoparia) [17]; [30]) was 0. The “Foxtail, Green plant response rating” value ([18]; 16 g ai/ha, 0 to 100 scale) was 0, the “Foxtail, Green plant response rating (0-100)” value [18, 30] was 0 and the “Ryegrass, Italian plant response rating” value ([19]; 16 g ai/ha, 0 to 100 scale) was 0. The “Ryegrass, Italian plant response rating (0-100)” value [19, 30] was 20, the “Barnyardgrass plant response rating” value ([20]; 16 g ai/ha, 0 to 100 scale) was 0 and the “Barnyardgrass plant response rating (0-100)” value [20, 30] was 0. For the same compound, the “Soybean plant response rating” value (soybean (Glycine max) [21]; 16 g ai/ha, 0 to 100 scale) was 0, the “Soybean plant response rating (0-100)” value (soybean (Glycine max) [21]; [30]) was 0 and the “Ragweed plant response rating” value ([22]; 16 g ai/ha, 0 to 100 scale) was 0. The “Ragweed plant response rating (0-100)” value [22, 30] was 0, the “Corn plant response rating” value (corn (Zea mays) [23]; 16 g ai/ha, 0 to 100 scale) was 0 and the “Corn plant response rating (0-100)” value (corn (Zea mays) [23]; [30]) was 0. For the same compound, the “Oat, Wild plant response rating” value ([24]; 16 g ai/ha, 0 to 100 scale) was 0, the “Oat, Wild plant response rating (0-100)” value [24, 30] was 0 and the “Plant response rating, Rice (0 to 100 scale, 0 is no effect and 100 is complete control)” value (rice (Oryza sativa)) was 0. The “Plant response rating, Sedge, Umbrella (0 to 100 scale, 0 is no effect and 100 is complete control)” value [25] was 0, the “Plant response rating, Barnyardgrass (0 to 100 scale, 0 is no effect and 100 is complete control)” value [26] was 0 and the “Plant response rating, Ducksalad (0 to 100 scale, 0 is no effect and 100 is complete control)” value [27] was 0.
